Literature values in patent publication US20140100283A1, “Method to Increase Absorption and Bioavailability of Oral Glutathione” (Atlantic Pro Nutrients, Inc. dba XYMOGEN, priority 2012, published 2014).

Conditions: in vivo

N[C@@H](CCC(=O)N[C@@H](CS)C(=O)NCC(=O)O)C(=O)O [glutathione, Glutathione]
increase in circulating glutathione after oral administration: does not increase circulating glutathione to a clinically beneficial extent
